Source: ChEMBL document CHEMBL1133973, “Asymmetric synthesis of BB-3497--a potent peptide deformylase inhibitor” (Bioorg Med Chem Lett, 2001)

Legend:
[1] = molecular target: T1, Matrilysin (Homo sapiens, UniProt P09237); experiment: (§1) Inhibition of Matrix metalloprotease-7
T1 sequence (P09237 whole entry): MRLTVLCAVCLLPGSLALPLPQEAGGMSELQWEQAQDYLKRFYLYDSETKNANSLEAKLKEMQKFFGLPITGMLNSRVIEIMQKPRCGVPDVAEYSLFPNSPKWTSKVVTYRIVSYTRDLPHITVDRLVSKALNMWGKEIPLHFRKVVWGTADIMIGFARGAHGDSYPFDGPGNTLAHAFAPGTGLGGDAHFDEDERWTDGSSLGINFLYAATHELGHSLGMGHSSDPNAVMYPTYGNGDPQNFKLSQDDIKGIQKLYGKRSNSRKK

[2] = molecular target: Stromelysin-1 (Homo sapiens, UniProt P08254); experiment: Inhibition of Matrix metalloprotease-3
[3] = molecular target: 72 kDa type IV collagenase (Homo sapiens, UniProt P08253); experiment: Inhibition of Matrix metalloprotease-2
[4] = molecular target: T2, Interstitial collagenase (Homo sapiens, UniProt P03956); experiment: Inhibition of human Matrix metalloprotease-1
T2 sequence (P03956 whole entry): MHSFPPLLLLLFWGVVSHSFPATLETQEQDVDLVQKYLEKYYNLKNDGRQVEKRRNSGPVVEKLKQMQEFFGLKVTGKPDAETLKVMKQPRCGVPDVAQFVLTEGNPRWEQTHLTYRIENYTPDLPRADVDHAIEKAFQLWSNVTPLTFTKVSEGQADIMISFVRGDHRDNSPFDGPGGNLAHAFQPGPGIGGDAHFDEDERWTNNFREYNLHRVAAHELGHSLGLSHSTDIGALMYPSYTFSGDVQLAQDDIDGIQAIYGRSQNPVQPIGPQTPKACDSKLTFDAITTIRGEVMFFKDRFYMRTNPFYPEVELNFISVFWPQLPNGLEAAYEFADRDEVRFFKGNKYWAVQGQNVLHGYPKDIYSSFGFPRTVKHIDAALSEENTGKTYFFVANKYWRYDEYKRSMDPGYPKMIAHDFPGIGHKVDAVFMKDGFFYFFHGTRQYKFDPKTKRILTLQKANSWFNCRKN

[5] = molecular target: Neprilysin (Homo sapiens, UniProt P08473); experiment: The compound was evaluated in vitro for the inhibition of Neutral endopeptidase
[6] = molecular target: Angiotensin-converting enzyme (Homo sapiens, UniProt P12821); experiment: Compound was tested for its inhibitory activity against Angiotensin I converting enzyme
[7] = molecular target: T3, Matrilysin (Homo sapiens) (UniProt P09237); experiment: as §1; details: concentration not given here
T3 sequence (whole entry): T1 sequence (P09237 whole entry)

Chain of Stromelysin-1 (P08254 whole entry): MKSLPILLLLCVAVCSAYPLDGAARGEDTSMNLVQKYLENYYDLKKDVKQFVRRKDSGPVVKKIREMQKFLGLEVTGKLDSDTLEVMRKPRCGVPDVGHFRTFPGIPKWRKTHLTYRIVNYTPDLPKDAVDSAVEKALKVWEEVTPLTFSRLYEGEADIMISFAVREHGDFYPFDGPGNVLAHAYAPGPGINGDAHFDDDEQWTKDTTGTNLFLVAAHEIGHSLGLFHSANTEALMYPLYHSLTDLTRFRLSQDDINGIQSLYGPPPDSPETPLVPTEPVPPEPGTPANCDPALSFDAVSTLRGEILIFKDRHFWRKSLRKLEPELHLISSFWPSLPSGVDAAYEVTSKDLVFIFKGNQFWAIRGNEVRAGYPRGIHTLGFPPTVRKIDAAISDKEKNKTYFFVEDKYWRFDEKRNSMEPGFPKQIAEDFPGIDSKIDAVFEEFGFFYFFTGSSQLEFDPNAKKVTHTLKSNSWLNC
Chain of 72 kDa type IV collagenase (P08253 whole entry): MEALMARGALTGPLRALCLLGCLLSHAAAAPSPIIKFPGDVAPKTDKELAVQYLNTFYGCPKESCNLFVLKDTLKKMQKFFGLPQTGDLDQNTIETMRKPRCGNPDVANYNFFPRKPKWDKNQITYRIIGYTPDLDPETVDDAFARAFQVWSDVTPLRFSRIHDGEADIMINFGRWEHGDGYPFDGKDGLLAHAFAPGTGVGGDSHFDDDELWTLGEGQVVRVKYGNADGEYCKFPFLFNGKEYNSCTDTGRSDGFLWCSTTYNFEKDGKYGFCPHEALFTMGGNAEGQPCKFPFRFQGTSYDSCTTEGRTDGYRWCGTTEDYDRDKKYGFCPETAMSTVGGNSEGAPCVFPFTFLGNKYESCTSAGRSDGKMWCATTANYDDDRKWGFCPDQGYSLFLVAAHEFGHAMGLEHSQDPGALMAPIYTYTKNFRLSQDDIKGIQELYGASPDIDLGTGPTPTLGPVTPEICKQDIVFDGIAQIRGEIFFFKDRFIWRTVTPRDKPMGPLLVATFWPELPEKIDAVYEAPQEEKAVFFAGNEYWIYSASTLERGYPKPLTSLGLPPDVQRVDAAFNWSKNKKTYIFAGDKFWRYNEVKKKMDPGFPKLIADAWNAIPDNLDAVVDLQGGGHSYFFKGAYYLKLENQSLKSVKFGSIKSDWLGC
Chain of Neprilysin (P08473 whole entry): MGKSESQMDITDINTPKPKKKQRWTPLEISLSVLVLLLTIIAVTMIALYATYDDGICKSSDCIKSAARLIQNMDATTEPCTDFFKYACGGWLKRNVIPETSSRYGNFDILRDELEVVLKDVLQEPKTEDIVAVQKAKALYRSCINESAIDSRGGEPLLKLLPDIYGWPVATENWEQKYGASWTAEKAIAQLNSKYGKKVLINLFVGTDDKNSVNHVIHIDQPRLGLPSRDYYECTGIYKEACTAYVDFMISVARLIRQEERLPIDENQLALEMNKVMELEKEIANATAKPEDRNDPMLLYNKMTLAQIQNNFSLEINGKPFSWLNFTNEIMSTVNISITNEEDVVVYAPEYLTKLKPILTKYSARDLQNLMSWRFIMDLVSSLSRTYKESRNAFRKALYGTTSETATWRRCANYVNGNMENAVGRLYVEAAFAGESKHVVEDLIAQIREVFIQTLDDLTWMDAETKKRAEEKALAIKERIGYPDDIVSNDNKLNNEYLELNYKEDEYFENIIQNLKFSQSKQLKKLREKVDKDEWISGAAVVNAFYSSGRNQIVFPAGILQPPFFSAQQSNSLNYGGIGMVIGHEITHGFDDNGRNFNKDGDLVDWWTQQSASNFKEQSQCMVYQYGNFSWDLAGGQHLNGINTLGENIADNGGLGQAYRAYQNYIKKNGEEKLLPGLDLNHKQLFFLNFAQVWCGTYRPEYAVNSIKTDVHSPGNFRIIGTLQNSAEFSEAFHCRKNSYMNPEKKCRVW
Chain of Angiotensin-converting enzyme (P12821 whole entry): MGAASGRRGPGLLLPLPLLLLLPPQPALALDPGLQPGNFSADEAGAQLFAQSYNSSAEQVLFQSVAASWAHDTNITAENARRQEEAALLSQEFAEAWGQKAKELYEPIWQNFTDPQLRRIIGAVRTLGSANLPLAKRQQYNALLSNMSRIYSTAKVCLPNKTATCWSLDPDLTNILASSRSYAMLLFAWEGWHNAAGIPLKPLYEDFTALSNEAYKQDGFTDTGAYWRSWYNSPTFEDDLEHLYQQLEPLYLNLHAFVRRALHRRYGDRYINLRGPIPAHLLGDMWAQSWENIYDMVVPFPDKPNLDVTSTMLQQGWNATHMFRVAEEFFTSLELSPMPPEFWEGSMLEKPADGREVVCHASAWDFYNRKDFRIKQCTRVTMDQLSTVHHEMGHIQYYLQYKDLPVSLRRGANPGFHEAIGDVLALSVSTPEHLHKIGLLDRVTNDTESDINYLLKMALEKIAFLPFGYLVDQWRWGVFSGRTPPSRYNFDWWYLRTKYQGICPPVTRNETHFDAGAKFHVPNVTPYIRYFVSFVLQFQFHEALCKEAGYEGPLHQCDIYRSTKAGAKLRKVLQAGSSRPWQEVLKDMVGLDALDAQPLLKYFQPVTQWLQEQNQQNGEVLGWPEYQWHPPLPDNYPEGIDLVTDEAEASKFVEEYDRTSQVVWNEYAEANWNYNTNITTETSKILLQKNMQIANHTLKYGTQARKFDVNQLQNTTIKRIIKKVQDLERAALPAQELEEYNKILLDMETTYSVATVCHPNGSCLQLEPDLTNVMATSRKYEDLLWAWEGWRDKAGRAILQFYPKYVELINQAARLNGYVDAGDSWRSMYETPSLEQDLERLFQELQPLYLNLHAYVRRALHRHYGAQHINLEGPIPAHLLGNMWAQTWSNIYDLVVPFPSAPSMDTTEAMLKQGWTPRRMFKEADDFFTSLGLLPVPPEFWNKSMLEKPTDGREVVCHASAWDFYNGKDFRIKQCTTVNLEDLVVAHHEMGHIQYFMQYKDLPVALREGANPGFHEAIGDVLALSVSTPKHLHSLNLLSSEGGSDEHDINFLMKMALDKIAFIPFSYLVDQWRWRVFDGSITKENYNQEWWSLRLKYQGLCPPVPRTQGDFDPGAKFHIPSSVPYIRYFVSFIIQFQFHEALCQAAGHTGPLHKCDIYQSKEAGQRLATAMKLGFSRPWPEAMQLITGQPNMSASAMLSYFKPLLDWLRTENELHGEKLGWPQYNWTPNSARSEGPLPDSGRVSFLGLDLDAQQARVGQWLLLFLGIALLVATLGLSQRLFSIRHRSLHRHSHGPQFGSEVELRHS

IC50 [1] [µM]	IC50 [2] [µM]	IC50 [3] [µM]	IC50 [4] [µM]	IC50 [5] [µM]	IC50 [6] [µM]	inhibition [7] [%]	SMILES
> 100	> 100	> 100	> 100	–	–	–	CCCCC(CN(O)C=O)C(=O)N[C@H](C(=O)N(C)C)C(C)(C)C (stereo partly specified)
–	6	3	1.1	6.7	> 100	60	CCCCC[C@H](CC(=O)NO)C(=O)N[C@H](C(=O)N1CCC[C@H]1CO)C(C)C [ACTINONIN]
> 100	> 100	15	2	50	> 100	–	CCCC[C@H](CN(O)C=O)C(=O)N[C@H](C(=O)N(C)C)C(C)(C)C
